The nature of data set [1]: Compatibility test with bisphenol A (BPA) epoxy resin. The class given is physicochemical. Conditions: 2.1 g sample + 0.9 g Epikote 828, mixed at 100-130° C., stood at room temperature; time until crystals begin precipitating. The method, then:
A sample (2.1 g) and 0.9 g of a BPA epoxy resin (Epikote 828 manufactured by Japan Epoxy Resin Co., Ltd.) were heated to 100° C. to 130° C. and mixed. When a uniform mixture was confirmed to be obtained, the mixture was cooled to room temperature and allowed to quiescently stand to observe the precipitation of crystals with naked eyes and to determine the time period required for the crystals to begin precipitating. When the crystals began precipitating within 0 to 2 days, the evaluation was rated “C”. When 3 to 6 days were required, the evaluation was rated “B”. When no crystals were precipitated even when 7 days had passed, the evaluation was rated “A”.

Data set [2] is described as follows: Solubility test in cyclohexanone. Conditions: saturation solubility at room temperature, liquid chromatography, about 3 days.
Experimental: To 2 g of a sample 1 g of cyclohexanone was added. The mixture was heated to 80° C. to dissolve the sample and cooled to room temperature. Then seed crystals were added thereto and stirred. The solubility (unit: % by mass) of the sample in the solution was measured by liquid chromatography. Such stirring and measurement by liquid chromatography procedures were repeated for about 3 days. The saturation solubility represents the solubility value at which the measured solubility no longer changed.

Turning to `Cc1cc(C23CC4CC(C2)CC(c2ccc(OCC5CO5)c(C)c2)(C4)C3)ccc1OCC1CO1` (stereo not drawn) [BMP13-EPO, 1,3-bis(4-glycidyloxy-3-methylphenyl)adamantane], the “Compatibility with BPA type epoxy resin” value in data set [1] is “B (When 3 to 6 days were required, the evaluation was rated “B”)”. Also, in data set [2], the Solubility in cyclohexanone is 33 % by mass.

In the case of `Cc1cc(C2(c3cc(C)c(OCC4CO4)c(C)c3)C3CC4CC(C3)CC2C4)cc(C)c1OCC1CO1` (stereo not drawn) [BDMP22-EPO, 2,2-bis(4-glycidyloxy-3,5-dimethylphenyl)adamantane], the “Compatibility with BPA type epoxy resin” value in data set [1] is “B (When 3 to 6 days were required, the evaluation was rated “B”)”. The molecule also yielded a Solubility in cyclohexanone in data set [2] of 32 % by mass.

In the case of `Cc1cc(C23CC4CC(C2)CC(c2cc(C)c(OCC5CO5)c(C)c2)(C4)C3)cc(C)c1OCC1CO1` (stereo not drawn) [BDMP13-EPO, 1,3-bis(4-glycidyloxy-3,5-dimethylphenyl)adamantane], the “Compatibility with BPA type epoxy resin” value in data set [1] is “A (When no crystals were precipitated even when 7 days had passed, the evaluation was rated “A”)”. Also, the Solubility in cyclohexanone in data set [2] was determined as 35 % by mass.

Regarding `c1cc(OCC2CO2)c(C2CCCCC2)cc1C12CC3CC(C1)CC(c1ccc(OCC4CO4)c(C4CCCCC4)c1)(C3)C2` (stereo not drawn) [BCHP13-EPO, 1,3-bis(4-glycidyloxy-3-cyclohexylphenyl)adamantane], in data set [1], the “Compatibility with BPA type epoxy resin” value is reported as “A (When no crystals were precipitated even when 7 days had passed, the evaluation was rated “A”)”. Besides, in data set [2], the Solubility in cyclohexanone amounted to 46 % by mass.

Turning to “1,3-bis(glycidyloxyphenyl)adamantane [BP13-EPO, reference compound]”, the “Compatibility with BPA type epoxy resin” value in data set [1] was “C (When the crystals began precipitating within 0 to 2 days, the evaluation was rated “C”)”.

For the origin of these results see patent publication US7960483B2, “Adamantane derivative, composition comprising the derivative, and optical and electronic member using the composition” (Idemitsu Kosan Co., Ltd., priority 2006, dated 2011).
